This is an account of results in US4262015A, “N-alkylthio- and N-arylthiosulfinylcarbamate esters” (priority 1979, dated 1981).

A short description of one data set: in vivo. The following applies: mouse, po. Here is the method: Mammalian toxicity was determined against Swiss white mice. The test compound was applied orally using corn oil as the carrier.
The test system of data set [1] is house flies, Musca domestica. As to the kind of experiment: insecticidal activity against house flies, topical application, mortality at 24 h. In kind it is in vivo. Conditions: read-out: House flies LD50. How it is done: (§1) Representative compounds of the N-arylthio- and N-alkylthiosulfinylcarbamate esters of the invention were tested for insecticidal activity against two insect species, house flies, Musca domestica, and mosquito larvae, Culex pipiens. Stock 1% concentrated solutions of each of the test compounds were made in acetone, and such solutions diluted with acetone to a concentration of 0.001-0.1%. House flies were treated topically on the notum by 1 μl of each of the diluted acetone solutions and percent mortality was counted 24 hours after application. Insects were held at a constant temperature of 60° F. Larvicidal activity was determined by applying 1 ml of the acetone solution in 100 ml of water containing 20 3rd instar mosquito larvae. Results are presented as LD50 in μg/g for house flies and LC50 in ppm for mosquito larvae.

Data set [2] deals with mosquito larvae, Culex pipiens. As to the kind of experiment: larvicidal activity against mosquito larvae. In kind it is in vivo. Conditions: 3rd instar mosquito larvae, 1 ml acetone solution in 100 ml water. Here is the method:
as §1

Setting [3] is: house flies, topical on notum, 1 μl acetone solution, 24 hours.

Values after ≈ are worked out from the molar mass of the structure shown. Read-outs that look alike come from different tables or passages of the source. Bounds are passed on as bounds.

In the data set “in vivo”, `CNC(=O)Oc1ccccc1OC(C)C` [2-isopropoxyphenyl methylcarbamate, reference compound] gave an LD50 of 60 mg/kg.
As to `CCCCS[S+]([O-])N(C)C(=O)Oc1cccc2c1OC(C)(C)C2` (centres unmarked) [Example I, 2,3-dihydro-2,2-dimethylbenzofuranyl-7 (methyl)(n-butylthiosulfinyl)carbamate], the LD50 stood at 16.5 mg/kg in data set [1] (topical, 24 h) and 45 mg/kg in “in vivo”.
In the same order, the values of `Cc1cc(C(C)(C)C)ccc1S[S+]([O-])N(C)C(=O)Oc1cccc2c1OC(C)(C)C2` (centres unmarked) [Example V, 2,3-dihydro-2,2-dimethylbenzofuranyl-7 (methyl)(2-methyl-4-t-butylphenylthiosulfinyl)carbamate] are 8.8 mg/kg and 70 mg/kg.
For the molecule `CCCCS[S+]([O-])N(C)C(=O)Oc1ccccc1OC(C)C` (centres unmarked) [Example VI, 2-isopropoxyphenyl (methyl)(n-butylthiosulfinyl)carbamate], the LD50 in data set [1] (topical, 24 h) came out at 31 mg/kg; in the data set “in vivo”, 1050 mg/kg.
For `CC(C)c1cccc(OC(=O)N(C)[S+]([O-])SC(C)(C)C)c1` (centres unmarked) [Example X, 3-isopropylphenyl (methyl)(t-butylthiosulfinyl)carbamate] the same measures were 75 mg/kg and 250 mg/kg.
Turning to `CN(C(=O)Oc1cccc2c1OC(C)(C)C2)[S+]([O-])SC(C)(C)C` (centres unmarked) [II, 2,3-dihydro-2,2-dimethylbenzofuranyl-7 (methyl)(t-butylthiosulfinyl)carbamate], the LD50 in data set [1] (topical, 24 h) is 9 mg/kg; in “in vivo” it was 70 mg/kg. The same molecule yielded an LC50 in data set [2] of 0.01 µg/mL (≈ 0.028 µM).
Regarding `CN(C(=O)Oc1cccc2c1OC(C)(C)C2)[S+]([O-])Sc1ccccc1` (centres unmarked) [III, 2,3-dihydro-2,2-dimethylbenzofuranyl-7 (methyl)(phenylthiosulfinyl)carbamate], the median lethal dose (LD50) is 7 mg/kg in data set [1] (topical, 24 h) and 32 mg/kg in the data set “in vivo”. The LC50 in data set [2] was 0.05 µg/mL (≈ 0.132 µM).
Turning to `CN(C(=O)Oc1cccc2c1OC(C)(C)C2)[S+]([O-])Sc1ccc(C(C)(C)C)cc1` (centres unmarked) [IV, 2,3-dihydro-2,2-dimethylbenzofuranyl-7 (methyl)(4-t-butylphenylthiosulfinyl)carbamate], the LD50 stood at 11.8 mg/kg in data set [1] (topical, 24 h) and 92 mg/kg in the data set “in vivo”.
As to `CSC(C)=NOC(=O)N(C)[S+]([O-])Sc1ccccc1` (centres unmarked) [IX, S-methyl N-[N'-methyl-N'-phenylthiosulfinylcarbamoyloxy]thioacetimidate], the LD50 in data set [1] (setting [3]) was 6.5 mg/kg; in the data set “in vivo”, 150 mg/kg.
On to `Cc1cc(C(C)(C)C)ccc1S[S+]([O-])N(C)C(=O)Oc1ccccc1OC(C)C` (centres unmarked) [VII, 2-isopropoxyphenyl (methyl)(2-methyl-4-t-butylphenylthiosulfinyl)carbamate], for which the LD50 in data set [1] (topical, 24 h) was 27 mg/kg; in “in vivo”, above 1000 mg/kg.
For `CSC(C)=NOC(=O)N(C)[S+]([O-])SC(C)(C)C` (centres unmarked) [VIII, S-methyl N-[N'-methyl-N'-t-butylthiosulfinylcarbamoyloxy]thioacetimidate], the values for the LD50 (in data set [1] (setting [3]); in “in vivo”) were 5.5 mg/kg and 135 mg/kg, respectively.
As for `Cc1cc(C(C)(C)C)ccc1S[S+]([O-])N(C)C(=O)Oc1cccc(C(C)C)c1` (centres unmarked) [XI, 3-isopropylphenyl (methyl)(2-methyl-4-t-butylphenylthiosulfinyl)carbamate], the LD50 is 62.5 mg/kg in data set [1] (topical, 24 h) and 450 mg/kg in the data set “in vivo”.
`CCCCCCCCCCCCS[S+]([O-])N(C)C(=O)ON=CC(C)(C)SC` (centres unmarked) [XII, 2-methyl-2-(methylthio)propionaldehyde O-[(methyl)(dodecylthiosulfinyl)carbamoyl]oxime]: in data set [1] (setting [3]), the LD50 came to 12 mg/kg.
Take `CN(C(=O)Oc1cccc2ccccc12)[S+]([O-])SC(C)(C)C` (centres unmarked) [XIII, 1-naphthyl (methyl)(t-butylthiosulfinyl)carbamate]: the LD50 in data set [1] (topical, 24 h) is 235 mg/kg; in the data set “in vivo”, above 1000 mg/kg.
In the same order, the values of `CN(C(=O)Oc1cccc2ccccc12)[S+]([O-])Sc1ccccc1` (centres unmarked) [XIV, 1-naphthyl (methyl)(phenylthiosulfinyl)carbamate] are 350 mg/kg and above 1000 mg/kg.
For `CNC(=O)Oc1cccc2c1OC(C)(C)C2` [carbofuran, 2,3-dihydro-2,2-dimethyl-7-benzofuranyl methylcarbamate, reference compound] the same measures were around 6.5 mg/kg and 2 to 8 mg/kg.

In general, LD50 refers to the dose expected to kill half of the subjects tested. One may read the LC50 as the concentration that kills 50% of the test population. High values mean a less lethal substance, low ones a more lethal substance.
